{
  "source": "PubChem BioAssay AID1963866",
  "about": "(Molecular Pharmacology Branch, DTP, NCI, 2024)",
  "test_system": "PDC KRAS tumor spheroids with HUVEC/MSC, viability",
  "experiment": "Anticancer human tumor 349418-098-R-PDC patient-derived lung adenocarcinoma cell line growth inhibition [KRAS2]",
  "conditions": "for IC50: curve of first compound; for viability, T/C: stronger effect = lower value",
  "in_short": "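KRAS-mutant tumor cells were grown as spheroids with HUVEC endothelial cells and human MSCs as stroma. Targeted agents were tested alone and with KRAS pathway inhibitors. Doses started at or near clinical Cmax, or 10 microM, descending half-log.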",
  "key": {"[1]": {"conditions": "second compound 0.1 µM, first compound 0.0316 µM"}, "[2]": {"conditions": "second compound 0.1 µM, first compound 0.1 µM"}, "[3]": {"conditions": "second compound 0.1 µM, first compound 0.316 µM"}, "[4]": {"conditions": "second compound 0.1 µM, first compound 1 µM"}, "[5]": {"conditions": "second compound 0.1 µM, first compound 3.16 µM"}, "[6]": {"conditions": "second compound 0.1 µM, first compound 10 µM"}, "[7]": {"conditions": "second compound 0.316 µM, first compound 0.0316 µM"}, "[8]": {"conditions": "second compound 0.316 µM, first compound 0.1 µM"}, "[9]": {"conditions": "second compound 0.316 µM, first compound 0.316 µM"}, "[10]": {"conditions": "second compound 0.316 µM, first compound 1 µM"}, "[11]": {"conditions": "second compound 0.316 µM, first compound 3.16 µM"}, "[12]": {"conditions": "second compound 0.316 µM, first compound 10 µM"}, "[13]": {"conditions": "second compound 1 µM, first compound 0.0316 µM"}, "[14]": {"conditions": "second compound 1 µM, first compound 0.1 µM"}, "[15]": {"conditions": "second compound 1 µM, first compound 0.316 µM"}, "[16]": {"conditions": "second compound 1 µM, first compound 1 µM"}, "[17]": {"conditions": "second compound 1 µM, first compound 3.16 µM"}, "[18]": {"conditions": "second compound 1 µM, first compound 10 µM"}, "[19]": {"conditions": "second compound 3.16 µM, first compound 0.0316 µM"}, "[20]": {"conditions": "second compound 3.16 µM, first compound 0.1 µM"}, "[21]": {"conditions": "second compound 3.16 µM, first compound 0.316 µM"}, "[22]": {"conditions": "second compound 3.16 µM, first compound 1 µM"}, "[23]": {"conditions": "second compound 3.16 µM, first compound 3.16 µM"}, "[24]": {"conditions": "second compound 3.16 µM, first compound 10 µM"}, "[25]": {"conditions": "second compound 10 µM, first compound 0.0316 µM"}, "[26]": {"conditions": "second compound 10 µM, first compound 0.1 µM"}, "[27]": {"conditions": "second compound 10 µM, first compound 0.316 µM"}, "[28]": {"conditions": "second compound 10 µM, first compound 1 µM"}, "[29]": {"conditions": "second compound 10 µM, first compound 3.16 µM"}, "[30]": {"conditions": "second compound 10 µM, first compound 10 µM"}},
  "data": [
    {"molecule": "CC1OCC2(CCN(c3cnc(Sc4ccnc(N)c4Cl)c(N)n3)CC2)C1N", "note": "(stereo not given) + CNCc1ccccc1-c1csc(C(C)Nc2nc(C)nc3cc(OC)c(OC)cc23)c1;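 note: spheroids exposed to compounds for seven days before readout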", "values": [
      {"measurement": "IC50", "setting": "second compound 0.1 µM", "value": "> 10000", "unit": "nM"},
      {"measurement": "IC50", "setting": "second compound 0.316 µM", "value": "> 10000", "unit": "nM"},
      {"measurement": "IC50", "setting": "second compound 1 µM", "value": "< 31.6", "unit": "nM"},
      {"measurement": "IC50", "setting": "second compound 3.16 µM", "value": "< 31.6", "unit": "nM"},
      {"measurement": "IC50", "setting": "second compound 10 µM", "value": "< 31.6", "unit": "nM"},
      {"measurement": "viability, T/C", "setting": "[1]", "value": 84.7, "unit": "%"},
      {"measurement": "viability, T/C", "setting": "[2]", "value": 98.9, "unit": "%"},
      {"measurement": "viability, T/C", "setting": "[3]", "value": 65, "unit": "%"},
      {"measurement": "viability, T/C", "setting": "[4]", "value": 103, "unit": "%"},
      {"measurement": "viability, T/C", "setting": "[5]", "value": 111, "unit": "%"},
      {"measurement": "viability, T/C", "setting": "[6]", "value": 88.3, "unit": "%"},
      {"measurement": "viability, T/C", "setting": "[7]", "value": 103, "unit": "%"},
      {"measurement": "viability, T/C", "setting": "[8]", "value": 91.1, "unit": "%"},
      {"measurement": "viability, T/C", "setting": "[9]", "value": 109, "unit": "%"},
      {"measurement": "viability, T/C", "setting": "[10]", "value": 88.2, "unit": "%"},
      {"measurement": "viability, T/C", "setting": "[11]", "value": 88.4, "unit": "%"},
      {"measurement": "viability, T/C", "setting": "[12]", "value": 72.9, "unit": "%"},
      {"measurement": "viability, T/C", "setting": "[13]", "value": 42.8, "unit": "%"},
      {"measurement": "viability, T/C", "setting": "[14]", "value": 35.4, "unit": "%"},
      {"measurement": "viability, T/C", "setting": "[15]", "value": 34, "unit": "%"},
      {"measurement": "viability, T/C", "setting": "[16]", "value": 46.8, "unit": "%"},
      {"measurement": "viability, T/C", "setting": "[17]", "value": 50.6, "unit": "%"},
      {"measurement": "viability, T/C", "setting": "[18]", "value": 16.5, "unit": "%"},
      {"measurement": "viability, T/C", "setting": "[19]", "value": 0.05, "unit": "%"},
      {"measurement": "viability, T/C", "setting": "[20]", "value": 0.07, "unit": "%"},
      {"measurement": "viability, T/C", "setting": "[21]", "value": 0.06, "unit": "%"},
      {"measurement": "viability, T/C", "setting": "[22]", "value": 0.41, "unit": "%"},
      {"measurement": "viability, T/C", "setting": "[23]", "value": 0.12, "unit": "%"},
      {"measurement": "viability, T/C", "setting": "[24]", "value": 0.17, "unit": "%"},
      {"measurement": "viability, T/C", "setting": "[25]", "value": 0.06, "unit": "%"},
      {"measurement": "viability, T/C", "setting": "[26]", "value": 0.07, "unit": "%"},
      {"measurement": "viability, T/C", "setting": "[27]", "value": 0.06, "unit": "%"},
      {"measurement": "viability, T/C", "setting": "[28]", "value": 0.35, "unit": "%"},
      {"measurement": "viability, T/C", "setting": "[29]", "value": 0.07, "unit": "%"},
      {"measurement": "viability, T/C", "setting": "[30]", "value": 0.12, "unit": "%"}
    ]},
    {"molecule": "COc1cc2nccc(Oc3ccc(NC(=O)C4(C(=O)Nc5ccc(F)cc5)CC4)cc3)c2cc1OC", "note": "+ CC1OCC2(CCN(c3cnc(Sc4ccnc(N)c4Cl)c(N)n3)CC2)C1N", "values": [
      {"measurement": "IC50", "setting": "second compound 0.1 µM", "value": 1700, "unit": "nM"},
      {"measurement": "IC50", "setting": "second compound 0.316 µM", "value": 1670, "unit": "nM"},
      {"measurement": "IC50", "setting": "second compound 1 µM", "value": 1530, "unit": "nM"},
      {"measurement": "IC50", "setting": "second compound 3.16 µM", "value": 1430, "unit": "nM"},
      {"measurement": "IC50", "setting": "second compound 10 µM", "value": 1350, "unit": "nM"},
      {"measurement": "viability, T/C", "setting": "[1]", "value": 113, "unit": "%"},
      {"measurement": "viability, T/C", "setting": "[2]", "value": 104, "unit": "%"},
      {"measurement": "viability, T/C", "setting": "[3]", "value": 99.9, "unit": "%"},
      {"measurement": "viability, T/C", "setting": "[4]", "value": 78.6, "unit": "%"},
      {"measurement": "viability, T/C", "setting": "[5]", "value": 12.3, "unit": "%"},
      {"measurement": "viability, T/C", "setting": "[6]", "value": 21.2, "unit": "%"},
      {"measurement": "viability, T/C", "setting": "[7]", "value": 108, "unit": "%"},
      {"measurement": "viability, T/C", "setting": "[8]", "value": 98.4, "unit": "%"},
      {"measurement": "viability, T/C", "setting": "[9]", "value": 96.1, "unit": "%"},
      {"measurement": "viability, T/C", "setting": "[10]", "value": 79.1, "unit": "%"},
      {"measurement": "viability, T/C", "setting": "[11]", "value": 10.4, "unit": "%"},
      {"measurement": "viability, T/C", "setting": "[12]", "value": 17.9, "unit": "%"},
      {"measurement": "viability, T/C", "setting": "[13]", "value": 104, "unit": "%"},
      {"measurement": "viability, T/C", "setting": "[14]", "value": 114, "unit": "%"},
      {"measurement": "viability, T/C", "setting": "[15]", "value": 99.5, "unit": "%"},
      {"measurement": "viability, T/C", "setting": "[16]", "value": 68.7, "unit": "%"},
      {"measurement": "viability, T/C", "setting": "[17]", "value": 14.3, "unit": "%"},
      {"measurement": "viability, T/C", "setting": "[18]", "value": 22.5, "unit": "%"},
      {"measurement": "viability, T/C", "setting": "[19]", "value": 94.4, "unit": "%"},
      {"measurement": "viability, T/C", "setting": "[20]", "value": 99.7, "unit": "%"},
      {"measurement": "viability, T/C", "setting": "[21]", "value": 85.6, "unit": "%"},
      {"measurement": "viability, T/C", "setting": "[22]", "value": 66.1, "unit": "%"},
      {"measurement": "viability, T/C", "setting": "[23]", "value": 13.7, "unit": "%"},
      {"measurement": "viability, T/C", "setting": "[24]", "value": 15.5, "unit": "%"},
      {"measurement": "viability, T/C", "setting": "[25]", "value": 86.4, "unit": "%"},
      {"measurement": "viability, T/C", "setting": "[26]", "value": 80.9, "unit": "%"},
      {"measurement": "viability, T/C", "setting": "[27]", "value": 72.6, "unit": "%"},
      {"measurement": "viability, T/C", "setting": "[28]", "value": 61.5, "unit": "%"},
      {"measurement": "viability, T/C", "setting": "[29]", "value": 16.8, "unit": "%"},
      {"measurement": "viability, T/C", "setting": "[30]", "value": 17.3, "unit": "%"}
    ]}
  ]
}
